Earlier results on two compounds are cited in US9682072B2, “Compositions and methods for treatment of lung dysfunction” (Children's Hospital Medical Center, priority 2015, dated 2017).

Data set [1] concerns ovalbumin-induced lung inflammation. To be noted: mouse, in vivo.
In a further data set the target is T1, FOXM1 (Homo sapiens, UniProt Q08050).
T1 sequence (Q08050 1-763): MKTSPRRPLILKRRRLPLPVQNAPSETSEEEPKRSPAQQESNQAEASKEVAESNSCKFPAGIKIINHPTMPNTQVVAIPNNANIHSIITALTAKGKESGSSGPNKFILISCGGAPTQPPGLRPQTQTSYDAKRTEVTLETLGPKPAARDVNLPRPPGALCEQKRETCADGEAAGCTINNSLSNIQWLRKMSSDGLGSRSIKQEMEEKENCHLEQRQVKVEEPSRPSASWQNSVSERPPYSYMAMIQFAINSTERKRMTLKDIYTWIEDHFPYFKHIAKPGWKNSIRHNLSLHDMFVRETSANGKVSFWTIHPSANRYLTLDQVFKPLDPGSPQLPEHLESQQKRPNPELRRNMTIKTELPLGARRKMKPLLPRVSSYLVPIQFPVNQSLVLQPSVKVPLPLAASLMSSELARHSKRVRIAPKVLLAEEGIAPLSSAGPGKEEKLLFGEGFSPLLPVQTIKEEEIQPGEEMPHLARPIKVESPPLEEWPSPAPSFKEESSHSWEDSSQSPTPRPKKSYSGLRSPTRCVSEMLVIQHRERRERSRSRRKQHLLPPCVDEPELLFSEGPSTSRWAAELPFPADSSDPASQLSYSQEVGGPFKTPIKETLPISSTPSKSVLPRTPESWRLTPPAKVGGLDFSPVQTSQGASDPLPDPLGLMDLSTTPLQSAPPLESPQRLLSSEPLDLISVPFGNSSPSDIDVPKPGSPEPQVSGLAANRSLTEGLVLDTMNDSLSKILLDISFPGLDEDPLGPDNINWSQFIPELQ

On to `N#CC(=C(/N)Sc1ccccc1N)/C(C#N)=C(\N)Sc1ccccc1N` [Compound U0126], for which the ovalbumin-induced lung inflammation entry in data set [1] was “diminished”. Regarding `Nc1c(C(=O)Nc2ccc(F)cc2)sc2nc(-c3cccs3)cc(C(F)(F)F)c12` [FDI-6], on FOXM1, the “binding of FOXM1 to its target DNA” value is reported as “inhibits”.
